For orientation: pIC50 means the negative decadic logarithm of the IC50, by convention in mol/L. Broadly, the pKi is the Ki on a negative log10 scale, so that one unit is a factor of ten. High values mean a small Ki, low ones a large Ki.

pIC50, pKi: −log10 of the molar value.

Common to all, as to format: biochemical
One data set concerns the target T1, Flag-PTP1B(1-320) (Homo sapiens, UniProt P18031).
T1 construct: Flag-PTP1B (residues 1-320 as a flag fusion); made in house
T1 sequence (P18031 1-320): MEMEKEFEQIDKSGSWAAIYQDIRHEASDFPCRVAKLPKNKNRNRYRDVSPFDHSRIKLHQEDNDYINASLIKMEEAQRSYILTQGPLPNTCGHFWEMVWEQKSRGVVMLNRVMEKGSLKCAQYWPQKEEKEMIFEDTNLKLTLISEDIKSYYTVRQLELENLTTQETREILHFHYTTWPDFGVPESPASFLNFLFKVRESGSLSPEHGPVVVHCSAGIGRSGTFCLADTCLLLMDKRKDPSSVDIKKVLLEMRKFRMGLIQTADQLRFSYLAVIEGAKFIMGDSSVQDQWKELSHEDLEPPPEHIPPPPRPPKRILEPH
Briefly: Enzyme kinetic assay (DiFMUP), Flag-PTP1B. The note with it: for IC50 shift in the presence of 0.1% protein: 0.1% protein (HSA) vs none; for pIC50: in the dark; for pKi: non-irradiated probes, competitive, reversible inhibitors of PTP1B. From the text: (§1) Protein tyrosine phosphatases used in this study were expressed and purified using published procedures, as follows: (a) Flag-PTP1B (residues 1-320 as a flag fusion), Huyer et al. (29). (b) Flag-TCPTP (residues 1-281 as a flag fusion), Asante-Appiah et al. (30). (c) Flag-CD45 (residues 556-1268 as a flag fusion), Wang et al. (31). (d) Mutant C215S-PTP1B (residues 1-320 as a gst fusion), Skorey et al. (28). (e) Infected SF9 cell lysate expressing full-length PTP1B (as a flag fusion), Cromlish et al. (25). For studies using H2O2-inactivated Flag-PTP1B, 100 μl of 2 μg/ml PTP1B was incubated with 100 μl of 1 mM or 20 mM H2O2 for 15 min to obtain 50% or 100% inactivated enzyme respectively as determined by the enzyme kinetic assay.
Kinetic measurements were performed using a Spectromax Gemini fluorescent plate reader (Molecular Devices, Sunnyvale, Calif.) in a 96-well plate format. Briefly, to 170 μl of BisTris buffer (50 mM BisTris, with and without 150 mM NaCl, 2 mM EDTA, 5 mM DMH, pH 6.3) containing 0-100 μM DiFMUP with or without 0.1% human serum albumin was added 10 μl of 10 or 50 μM photoprobe in water in a three-fold serial dilution. The reaction was initiated by the addition of 20 μl of 0.04 μg/ml Flag-PTP1B, Flag-TCPTP (0.04 μg/ml) or Flag-CD45 (0.01 μg/ml) in BisTris buffer containing 20% glycerol and 0.01% Triton X-100. The conversion of DiFMUP to DiFMU was monitored continuously for 5 min with excitation at 360 nm and emission at 450 nm (cutoff filter at 435 nm). IC50 values were calculated by nonlinear regression fit of the initial rates versus inhibitor concentration obtained using 10 μM DiFMUP using the Softmax Pro software (version 3.11, Molecular Devices). Ki values were determined by non-linear regression fit of the initial rates versus substrate concentration at various inhibitor concentrations using the kinetic equation software from Grafit software (Erithacus Software).

The target in a further data set is T2, Flag-TCPTP (Homo sapiens, UniProt P17706).
T2 construct: Flag-TCPTP (residues 1-281 as a flag fusion); made in house
T2 sequence (P17706 1-281): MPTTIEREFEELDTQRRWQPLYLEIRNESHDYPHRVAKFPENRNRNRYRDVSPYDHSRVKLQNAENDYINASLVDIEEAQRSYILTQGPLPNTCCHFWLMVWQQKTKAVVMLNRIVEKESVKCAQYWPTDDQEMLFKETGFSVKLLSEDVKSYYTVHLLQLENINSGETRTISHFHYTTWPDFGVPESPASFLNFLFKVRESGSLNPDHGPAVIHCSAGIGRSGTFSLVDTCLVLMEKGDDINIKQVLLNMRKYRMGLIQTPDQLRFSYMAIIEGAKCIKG
In words: Enzyme kinetic assay (DiFMUP), Flag-TCPTP. Conditions: in the dark, 10 μM DiFMUP.
Text: as §1
(§2) Kinetic measurements were performed using a Spectromax Gemini fluorescent plate reader (Molecular Devices, Sunnyvale, Calif.) in a 96-well plate format. […] The conversion of DiFMUP to DiFMU was monitored continuously for 5 min with excitation at 360 nm and emission at 450 nm (cutoff filter at 435 nm). […] Ki values were determined by non-linear regression fit of the initial rates versus substrate concentration at various inhibitor concentrations using the kinetic equation software from Grafit software (Erithacus Software).

The next data set deals with T3, Flag-CD45 (Mus musculus, UniProt P06800).
T3 construct: Flag-CD45 (residues 556-1268 as a flag fusion); made in house
T3 sequence (P06800 581-1293 limits assumed): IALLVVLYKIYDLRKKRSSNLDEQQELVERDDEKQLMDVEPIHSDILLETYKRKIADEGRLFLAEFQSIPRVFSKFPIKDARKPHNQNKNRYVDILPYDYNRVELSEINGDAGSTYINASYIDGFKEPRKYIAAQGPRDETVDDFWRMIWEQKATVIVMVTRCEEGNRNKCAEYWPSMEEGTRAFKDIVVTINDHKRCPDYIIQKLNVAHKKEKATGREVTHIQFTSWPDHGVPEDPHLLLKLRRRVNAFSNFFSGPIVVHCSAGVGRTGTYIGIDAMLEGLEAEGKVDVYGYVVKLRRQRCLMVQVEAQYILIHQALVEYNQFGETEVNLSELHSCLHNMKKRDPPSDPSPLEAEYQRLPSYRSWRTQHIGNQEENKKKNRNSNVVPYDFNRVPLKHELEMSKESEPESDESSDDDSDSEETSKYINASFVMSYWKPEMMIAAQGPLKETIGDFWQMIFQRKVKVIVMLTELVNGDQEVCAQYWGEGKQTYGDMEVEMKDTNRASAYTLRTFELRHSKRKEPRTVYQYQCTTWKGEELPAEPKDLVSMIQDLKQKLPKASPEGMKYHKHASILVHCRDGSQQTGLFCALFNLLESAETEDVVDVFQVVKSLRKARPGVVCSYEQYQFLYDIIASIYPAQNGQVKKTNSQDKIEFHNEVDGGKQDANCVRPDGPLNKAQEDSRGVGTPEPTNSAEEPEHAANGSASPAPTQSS
Briefly: Enzyme kinetic assay (DiFMUP), Flag-CD45. The note with it: Flag-CD45, in the dark, 10 μM DiFMUP.
Text: as §1, §2

The mark [1] stands for this setting: Flag-PTP1B(1-320), 10 μM DiFMUP.

Take `NC(=O)[C@H](Cc1ccc(C(F)(F)P(=O)(O)O)c(Br)c1)NC(=O)[C@H](Cc1ccc(C(F)(F)P(=O)(O)O)c(Br)c1)NC(=O)c1cc(I)cc(C2(C(F)(F)F)N=N2)c1` [Example 1, Tetraamnionium 3-bromo-4-(difluoro(phosphonato)methyl)-N-(3-iodo-5-(3-(trifluoromethyl)-3H-diaziren-3-yl)benzoyl)-L-phenylalanyl-3-bromo-4-(difluoro(phosphonato)methyl)-L-phenylalaninamide]: at Flag-PTP1B(1-320), the “IC50 shift in the presence of 0.1% protein” value is 7 fold. Also, the pIC50 on Flag-PTP1B(1-320) (Fla-PTP1B + 0.1% HSA) is 8.82; against Flag-PTP1B(1-320) (setting [1]) it was 9.70; on Flag-TCPTP, 10.00; on Flag-CD45, 6.31. Further, the pKi at Flag-PTP1B(1-320) is 10.00.

Regarding `NC(=O)[C@H](Cc1ccc(C(F)(F)P(=O)(O)O)cc1)NC(=O)[C@H](Cc1ccc(C(F)(F)P(=O)(O)O)cc1)NC(=O)c1cc(I)cc(C2(C(F)(F)F)N=N2)c1` [Example 9, 4-(Difluoro(phosphono)methyl)-N-(3-iodo-5-(3-(trifluoromethyl)-3H-diaziren-3-yl)benzoyl)-L-phenylalanyl-4-(difluoro(phosphono)methyl)-L-phenylalaninamide], the “IC50 shift in the presence of 0.1% protein” value on Flag-PTP1B(1-320) was “not significantly affected”. In addition, the pIC50 was 7.85 at Flag-PTP1B(1-320) (Fla-PTP1B + 0.1% HSA), 7.96 against Flag-PTP1B(1-320) (setting [1]), 8.22 on Flag-TCPTP and 4.90 against Flag-CD45. This compound also showed a pKi at Flag-PTP1B(1-320) of 8.30.

Values taken from patent publication US20070161542A1, “Ptb1b photoprobes” (priority 2003, published 2007).
